Data taken from US10233201B2, “Class of HDAC inhibitors expands the renal progenitor cells population and improves the rate of recovery from acute kidney injury” (University of Pittsburgh—Of the Commonwealth System of …, priority 2012, dated 2019).
“Also recorded” adds a separate entry of the source.

Assays:
[1] = cited from earlier work
[2] = system: human HDACs (HeLa cell nuclear extract); experiment: Fluorescence histone deacetylation assay with HeLa cell nuclear extract; type: biochemical; conditions: 1 μM TSA, all input levels of nuclear extract
Description: To evaluate this in vitro, the deacetylation of a fluorescent peptide substrate was measured in the presence of human HDACs.
In vitro HDAC activity assays were performed using a fluorescence HDAC assay kit (Active Motif) according to the manufacturer's instructions. For maintaining compound solubility at 5 mM, the final DMSO concentration in all assay wells was increased to 5%. Fluorescence was detected using an M5 Plate Reader ([…])

[3] = system: histone H4 acetylation; experiment: Histone H4 hyperacetylation Western blot in embryos; type: in vivo, zebrafish; conditions: 24 hpf embryos treated 6 hours; 3 μM PTBA, 25 μM PBA, 200 nM TSA
Description: It was next determined whether the HDACi function of PTBA was quantifiable in vivo. 24 hpf embryos were treated with 3 μM PTBA, 25 μM PBA, or 200 nM TSA for 6 hours. Protein extracts were prepared and immunoblotted with an anti-hyperacetylated histone H4 antibody. […] Furthermore, increasing the compound concentration caused a corresponding increase in hyperacetylation (FIG. 21).
SDS-PAGE and Western blotting were performed as described previously with some modifications (Noel, E. S. et al. Organ-specific requirements for Hdac1 in liver and pancreas formation. Dev Biol 322, 237-250, (2008)). Proteins were separated on 18% SDS-PAGE gels. Membranes were incubated at 4° C. overnight with 1:1000 anti-hyperacetylated histone H4 antibody (06-946, Millipore) or 1:1000 anti-α-tubulin antibody (Sigma-Aldrich) in PBT containing 5% nonfat milk.

[4] = system: renal progenitor cells (lhx1a expression); experiment: In situ hybridization for lhx1a expression in 10-somite embryos (renal progenitor cell expansion); type: in vivo
Description: (§1) PTBA was synthesized as described below. Hydroxyurea and aphidicolin were obtained from Sigma-Aldrich.
(§2) In situ hybridization and immunocytochemistry: In situ hybridization was performed as previously described with some modifications. 142 Hybridization temperature was 65° C. Embryos were blocked in 2% blocking reagent (Roche) with 5% sheep serum in MAB (100 mM maleic acid and 150 mM NaCl [pH 7.5]). Whole-mount immunocytochemistry with 1:25 mouse anti-α6F antibody (Developmental Studies Hybridoma Bank) and 1:100 Cy3 secondary antibody (Jackson ImmunoResearch) was performed as described previously. 108 Embryos were embedded in JB-4 for sectioning per the manufacturer's instructions (Polysciences), sectioned at 5 μm, and mounted with Cytoseal 60 (Richard-Allan Scientific).
The remaining PTBA analogs were synthesized.
In situ hybridization for lhx1a was performed as described above. […] Compounds were classified as effective, partially-effective or ineffective based on comparison to the effects of PTBA at a given concentration.
Testing of the compounds is on-going, but for those tested, Table 3 provides first pass EC50s based upon colormetric in situ hybridizations for the Lhx1a mRNA expression levels. After the procedure is run, in situ hybridization is done for the lhx1 mRNA expression and the number of embryos that show an expanded kidney field is manually counted to establish the percent of embryos showing expansion. Then the EC50 is determined by plotting the percent expansion in Excel, graphing the results and using the trendline function to determine the 50 percent point. […] For UPHD-00186, the 4 values for EC50 are shown in Table 3 for the corresponding expression in zebrafish embryos employed an artificial intelligence-based image analysis method termed cognition network technology (CNT) for n=4.

[5] = system: myod1 (somites), fli1a (vasculature), ntla (notochord); experiment: In situ hybridization for mesodermal markers myod1, fli1a, ntla in 10-somite embryos; type: in vivo, zebrafish
Description: as §1, §2

[6] = system: zebrafish larvae; experiment: Phenotypic scoring of edema and survival in zebrafish larvae at 72 hpf; type: in vivo
Text: as §1
Wild type: no visible edema or developmental delay.

| Structure (SMILES) | half-life (t1/2) ([1]; following administration) [h] | bioavailability ([1]; taken orally) | effect on HDAC activity [2] | histone H4 hyperacetylation [3] | embryos with expanded lhx1a expression (% expansion) ([4]; 100 nM) [%] | lhx1a expansion class, 100 nM ([4]; 100 nM from 2 hpf) | embryos with expanded lhx1a expression (% expansion) ([4]; 200 nM) [%] | lhx1a expansion class, 200 nM ([4]; 200 nM from 2 hpf) | lethality before the 10-somite stage ([4]; 400 nM) | lethality before the 10-somite stage ([4]; 800 nM) | lethality before the 10-somite stage ([4]; 1.5 μM) | lethality before the 10-somite stage ([4]; 3 μM) | concentration producing lhx1a expansion consistent with 3 μM PTBA ([4]; 10-somite embryos) [nM] | embryos with disrupted normal ntla expression ([5]; 200 nM) [%] | embryos with decreased myod1 expression ([5]; 3 μM PTBA (slightly decreased), 25 μM PBA, 200 nM TSA) [%] | embryos with decreased fli1a expression ([5]; 25 μM PBA, 200 nM TSA) [%] | treated 72 hpf larvae killed ([6]; 300 nM) | larval phenotype in phenotypic screen of analogs ([6]; 3 μM, 2 to 72 hpf) | death (lethality) by 72 hpf ([6]; 25 μM PBA, 200 nM TSA, n=90) [%] | larvae with edemic phenotype / pericardial edema at 72 hpf ([6]; treated from 2 hpf, 3 μM PTBA, 25 μM PBA, 200 nM TSA) [%] |
| --- | --- | --- | --- | --- | --- | --- | --- | --- | --- | --- | --- | --- | --- | --- | --- | --- | --- | --- | --- | --- |
| O=C(O)CCCc1ccccc1 [Buphenyl] | ~1 | about 80% |  |  |  |  |  |  |  |  |  |  |  |  |  |  |  |  |  |  |
| CC(/C=C/C(=O)NO)=C\[C@@H](C)C(=O)c1ccc(N(C)C)cc1 [TSA, trichostatin A] |  |  | completely blocked activity; also recorded: inhibit all HDAC activity | hyperacetylation was observed | 97 | + | 100 | + | died before reaching 10 somites | lethal | lethal | killed all treated embryos | 200 | 86 | 100 | 95 | greater than 90% | generated edemic and/or lethal phenotypes | 61 | 100 |
